# According to patent US20120315281A1, “TREATMENT OF RENAL INJURY” (THE PENN STATE RESEARCH FOUNDATION, priority 2011, published 2012):
# Columns and labels:
# Format in all cases: in vivo, mouse
# [1] = tested on: Ins2^Akita and their wild type littermate mice; assay: Characteristics of Ins2^Akita and wild type littermate mice (glucose, body weight, kidney weight, body composition) with or without arginase inhibitor; details: BEC 2.3 mg/kg/day 9 weeks, 14-week of age, mean ± SEM
# Description: Experiments were conducted in male Ins2^Akita and their wild type (WT) littermate mice (DBA background; Jackson Laboratories) starting at 5 weeks of age until 14 weeks of age and were approved by the Pennsylvania State University College of Medicine Institutional Animal Care and Use Committee (PSU IACUC). The Ins2^Akita mice were recommended by the Animal Models of Diabetes Complications Consortium as an optimal model of diabetic nephropathy, and the mice developed hyperglycemia at 3 weeks of age. Additional experiments were conducted in male 6-week-old mice (DBA background; Jackson Laboratories), arginase-2 (Arg2) wild type […] mice on C57B1/6 background weighing 20-22 g and were approved by the PSU IACUC. After an overnight fast, animals were given multiple low doses of vehicle or STZ (Sigma, St. Louis, Mo.; 50 mg/kg body wt dissolved in lactated Ringers solution) via intraperitoneal injection.
# (§1) BEC, a selective arginase antagonist (2.3 mg/kg/day, Cayman Chemical, Ann Arbor, Mich., USA), or vehicle (phosphate-buffered saline) was administered by continuous subcutaneous infusion for 9 weeks (in Ins2^Akita experiments) or for 6 wks (in STZ DBA mice experiments) via a mini-osmotic pump (Alzet; Durect Corporation, Palo Alto, Calif., USA) as described in CIRCULATION RESEARCH, 102(8):923-32, Apr. 25, 2008. The osmotic pump was incubated in phosphate buffer saline (PBS) for 60-h at 37° C. prior to implantation and was implanted dorsally between shoulders. The condition of mice and body weight were monitored daily following the pump implantation.
# (§2) Urinary albumin excretion (UAE) was measured by ELISA using Albuwell M (Exocell, Philadelphia, Pa.) as described previously. Blood urea nitrogen (BUN) was measured using (VITROS DT60II chemistry slides; Ortho-Clinical Diagnostics, Rochester, N.Y.). Body composition was determined using LF90 Minispec Time Domain Nuclear Magnetic Resonance Spectrometer (Bruker Optics, Billerica Mass.). […]
# [2] = tested on: Ins2^Akita and their wild type littermate mice; assay: Blood urea nitrogen (BUN) in Ins2^Akita and wild type littermate mice; details: BEC 2.3 mg/kg/day 9 weeks, 14-week of age, mean ± SEM
# Description: (§3) Experiments were conducted in male Ins2^Akita and their wild type (WT) littermate mice (DBA background; Jackson Laboratories) starting at 5 weeks of age until 14 weeks of age and were approved by the Pennsylvania State University College of Medicine Institutional Animal Care and Use Committee (PSU IACUC). The Ins2^Akita mice were recommended by the Animal Models of Diabetes Complications Consortium as an optimal model of diabetic nephropathy, and the mice developed hyperglycemia at 3 weeks of age. […]
# as §1, with “25, 2008. The osmotic pump was incubated in phosphate buffer saline (PBS) for 60-h at 37° C. prior to implantation and was implanted dorsally between shoulders.” left out
# as §2
# [3] = tested on: Ins2^Akita mice; assay: 24-hr urinary albumin excretion (UAE) in Ins2^Akita mice; details: BEC 2.3 mg/kg/day 9 weeks, at 14 weeks of age, vs vehicle, FIG. 1
# Description: The Ins2^Akita and their wild type (WT) littermate mice were treated with the arginase-specific inhibitor S-(2-Boronoethyl)-L-cysteine (BEC) (2.3 mg/kg/day) or vehicle via osmotic minipump for 9 weeks. Urine was collected for measurement of UAE before treatment (at 5 weeks of age) and after treatment (at 14 weeks of age). In FIG. 1, the open bars are vehicle treated groups and filled bars are arginase inhibitor treated groups. Data are presented as mean±SEM. […]
# as §1, with “25, 2008. The osmotic pump was incubated in phosphate buffer saline (PBS) for 60-h at 37° C. prior to implantation and was implanted dorsally between shoulders.” left out
# as §2
# [4] = tested on: Ins2^Akita and their wild type littermate mice; assay: Glomerular macrophage recruitment, Mac-2 immunohistochemistry, Ins2^Akita experiment; details: 14 weeks of age
# Description: FIGS. 2A-2D show the effect of arginase inhibition on macrophage recruitment in Ins2^Akita mice using immunohistochemistry.
# Immunohistochemistry for macrophages was performed in mice using rat anti-mouse Mac-2 monoclonal antibody; clone M3/38 (Cedarlane, Burlington, N.C., US) on paraffin sections. Sections were incubated with primary antibody (50 μg/ml) followed by a biotinylated goat IgG anti-rat (Vector Laboratories, Burlingame, Calif.) secondary antibody according to the manufacturer's protocol. Sections were viewed using an Olympus BX51 microscope and DP71 digital camera using MicroSuite Basic 2.6 imaging software. Images were taken with 100× (oil) objective with a total magnification of 1000×. The number of glomerular macrophages were counted in twenty glomeruli per section (number of macrophages in glomeruli divided by the number of glomeruli) in blinded fashion under 40× magnification and averaged.
# To determine whether arginases are critical for kidney macrophage infiltration in diabetic nephropathy, the distribution and quantitation of macrophages in kidneys by immunohistochemistry (Mac-2 positive macrophages) were analyzed. […]
# [5] = tested on: arginase 2 mRNA; assay: Kidney arginase 2 mRNA expression by RT-PCR in Ins2^Akita mice; details: whole kidney RNA, Ins2^Akita mice at 14 weeks of age; normalized to GAPDH, relative to control; FIG. 5
# Description: FIGS. 5A and 5B show the effect of arginase inhibition on arginase 2 mRNA expression in Ins2^Akita mice. Real-time polymerase chain reaction (RT-PCR) was performed on whole mouse kidney total RNA isolated at 14 weeks of age. […] In FIG. 5B, expression of arginase 2 mRNA was normalized to GAPDH and data were calculated as expression relative to control.
# Total RNA was extracted from mouse kidneys using RNeasy Mini Kit (Qiagen, Gumbh, Hilden, Germany). Single-strand cDNA was synthesized using iScript cDNA Synthesis Kits (Bio-Rad, Hercules, Calif.) for two-step real-time polymerase chain reaction (RT-PCR). Gene-specific primers for ARG1 and ARG2 were designed using Beacon Designer Probe/Primer Design Software (Premier Biosoft International, Palo Alto, Calif.). Specificity of the PCR products was verified by melting curve analysis. Quantitative real-time PCR was performed using a Bio-Rad CFX96 system (Hercules, Calif.). Reactions were performed in duplicate, and threshold cycle numbers were averaged. Samples were calculated with normalization to GAPDH.
# RT-PCR was performed on whole mouse kidney total RNA isolated at 14 weeks of age. […] In FIG. 5B, expression of arginase 2 mRNA was normalized to GAPDH and data were calculated as expression relative to control.
# [6] = tested on: STZ-induced diabetic mice (DBA background); assay: 24-hr urinary albumin excretion in STZ-induced diabetic mice (DBA background); details: BEC 2.3 mg/kg/day 6 weeks, vs vehicle-treated diabetic, FIG. 6
# Description: After an overnight fast, animals were given multiple low doses of vehicle or STZ (Sigma, St. Louis, Mo.; 50 mg/kg body wt dissolved in lactated Ringers solution) via IP injection. Mice were treated with the arginase-specific inhibitor BEC (2.3 mg/kg/day) or vehicle via osmotic minipump for 6 weeks. Urine was collected for measurement of UAE after 6 weeks. Data are presented as mean±SEM.
# Experiments were conducted in male Ins2^Akita and their wild type (WT) littermate mice (DBA background; Jackson Laboratories) starting at 5 weeks of age until 14 weeks of age and were approved by the Pennsylvania State University College of Medicine Institutional Animal Care and Use Committee (PSU IACUC). […]
# as §1, with “25, 2008. The osmotic pump was incubated in phosphate buffer saline (PBS) for 60-h at 37° C. prior to implantation and was implanted dorsally between shoulders.” left out
# Urinary albumin excretion (UAE) was measured by ELISA using Albuwell M (Exocell, Philadelphia, Pa.) as described previously. […]
# [7] = tested on: STZ-induced diabetic mice; assay: Glomerular macrophage recruitment, Mac-2 staining, STZ-induced diabetic mice; details: arginase inhibitor 6 weeks, p<0.0001 vs vehicle-treated diabetic
# Description: as §3
# as §1, with “25, 2008. The osmotic pump was incubated in phosphate buffer saline (PBS) for 60-h at 37° C. prior to implantation and was implanted dorsally between shoulders.” left out
# Immunohistochemistry for macrophages was performed in mice using rat anti-mouse Mac-2 monoclonal antibody; clone M3/38 (Cedarlane, Burlington, N.C., US) on paraffin sections. […] The number of glomerular macrophages were counted in twenty glomeruli per section (number of macrophages in glomeruli divided by the number of glomeruli) in blinded fashion under 40× magnification and averaged.
# [8] = tested on: STZ-induced diabetic mice (DBA background); assay: Renal histological changes, PAS staining, STZ-induced diabetic mice (DBA background)
# From the text: Sections were stained with Periodic acid-Schiff (PAS) and all glomeruli were examined at 40×. Images were taken with 100× (oil) objective with a total magnification of 1000×. […] Adjacent tubular basement membranes stain PAS positive as well.
# Kidneys from mice were fixed in 4% paraformaldehyde, embedded in paraffin, and 3-μm sections were cut. Sections were stained with Periodic acid-Schiff (PAS) stain and all glomeruli were examined at 40× (TKC) in a masked fashion. All images were obtained with an Olympus BX51 microscope and DP71 digital camera using MicroSuite Basic 2.6 imaging software. Images were taken with 100× (oil) objective with a total magnification of 1000×. Semiquantitative scores (0-4+) were assigned based on the masked reading, as previously described. Each glomerulus on a single section was graded from 0 to 4+, where 0 represents no lesion, and 1, 2, 3, and 4+ represent mesangial matrix expansion or sclerosis, involving […] of the glomerular tuft area, respectively.
# [9] = tested on: eNOS deficient and their wild type (WT) littermate mice; assay: Urinary albumin excretion in STZ-diabetic eNOS deficient and wild type littermate mice; details: BEC 2.3 mg/kg/day s.c. infusion 6 weeks, FIG. 14
# Description: Experiments were conducted using multiple low doses of STZ (50 mg/kg body weight for 5 days). Arginase inhibition using BEC (2.3 mg/kg/day) or vehicle was administered by continuous subcutaneous infusion for 6 weeks via a mini-osmotic pump. Data is shown for 6 weeks after STZ-induced diabetes.
# Urinary albumin excretion (UAE) was measured by ELISA using Albuwell M (Exocell, Philadelphia, Pa.) as described previously. Blood urea nitrogen (BUN) was measured using (VITROS DT60II chemistry slides; Ortho-Clinical Diagnostics, Rochester, N.Y.). Body composition was determined using LF90 Minispec Time Domain Nuclear Magnetic Resonance Spectrometer (Bruker Optics, Billerica Mass.).
# eNOS deficient mice are recommended by the Animal Models of Diabetes Complications Consortium (AMDCC) as an optimal model of diabetic nephropathy. Experiments were conducted in male 6-week-old eNOS deficient and their wild type (WT) littermate mice using multiple low doses of STZ (50 mg/kg body weight for 5 days). Arginase inhibition using BEC (2.3 mg/kg/day) or vehicle was administered by continuous subcutaneous infusion for 6 weeks via a mini-osmotic pump. Renal function was monitored throughout the study.
# [10] = control (wild type littermate) mice
compound,measurement,setting,value
"N[C@@H](CSCCB(O)O)C(=O)O [BEC, S-(2-Boronoethyl)-L-cysteine]",Kidney weight,[1]; Ins2^Akita mice,269 ± 10 mg
same,KW/BW (kidney weight to body weight ratio),[1]; [10],8.1 ± 0.1 mg/g
same,Kidney weight,[1]; [10],262 ± 4 mg
same,BUN,[2]; Ins2^Akita mice,28 ± 3
same,BUN,[2]; [10],28 ± 3
same,Albuminuria (urinary albumin excretion),[3],significantly reduced
same,glomerular macrophage recruitment (Mac-2 positive),"[4]; Ins2^Akita mice treated with arginase inhibitor, p<0.0001 vs vehicle-treated Ins2^Akita, FIG. 2D",0.9±0.14 macrophages/glomerulus
same,glomerular macrophage recruitment (Mac-2 positive),"[4]; control mice treated with arginase inhibitor, FIG. 2C",0.29±0.03 macrophages/glomerulus
same,increase in arginase 2 mRNA expression,[5],~1.5 fold
same,albuminuria (24-hr UAE),[6],significantly reduced
same,glomerular macrophage recruitment (Mac-2 staining),[7],1.2±0.06 macrophages/glomerulus
same,"PAS positive material, share of the mesangial matrix","[8]; representative PAS section from arginase inhibitor treated STZ mouse, FIG. 7C",< 25%
same,"glomerular changes (PAS, glomerular cellularity and mesangial expansion) score","[8]; semiquantitative score 0-4+, STZ-induced diabetic mice after 6 weeks, p<0.05 vs vehicle-treated STZ",1.6±0.08
same,albuminuria (UAE),"[9]; diabetic WT mice (STZ), vs vehicle",significantly reduced
same,UAE,"[9]; diabetic eNOS deficient mice (STZ), vs vehicle treated diabetic mice",failed to reduce
